# Target: T1, hCRTH2 (Homo sapiens, UniProt Q9Y5Y4)
# T1 construct: expressed in transfected cells; host or cells: HEK (human embryonic kidney) cells expressing hCRTH2; membrane preparation
# T1 sequence (Q9Y5Y4 1-395): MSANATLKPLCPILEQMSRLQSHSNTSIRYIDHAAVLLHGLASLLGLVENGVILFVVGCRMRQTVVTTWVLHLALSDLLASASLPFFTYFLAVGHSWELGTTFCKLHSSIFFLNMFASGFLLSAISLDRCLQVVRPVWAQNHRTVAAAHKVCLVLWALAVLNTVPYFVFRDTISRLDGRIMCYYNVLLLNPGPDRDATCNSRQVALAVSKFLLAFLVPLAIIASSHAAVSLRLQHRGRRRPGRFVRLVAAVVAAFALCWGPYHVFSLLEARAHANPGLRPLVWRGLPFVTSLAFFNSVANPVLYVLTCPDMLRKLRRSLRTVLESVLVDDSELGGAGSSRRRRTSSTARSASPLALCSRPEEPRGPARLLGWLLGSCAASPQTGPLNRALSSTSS
# Assay: Radioligand binding assay ([3H]PGD2 competition, HEK-hCRTH2 membranes)
# Settings: [3H]PGD2 binding, rated A-E (Table A)
# Outline: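 Competition binding with 3.0 nM [3H]PGD2 and 8-20 μg HEK-hCRTH2 membrane protein in 50 mM Tris-HCl pH 7.4, 1 mM EDTA, 2 mM MnCl2, 1% Me2SO, 60 min at room temperature. Nonspecific binding defined with 10 μM PGD2; bound radioactivity counted after filtration.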
row,Compound,Ki [nM]
1,O=C(O)CCCCc1nc2cc(C(=O)N3CCC(c4ccc(Cl)cc4)CC3)ccc2nc1-c1ccc(F)cc1 [compound 135],2.1 to 20
2,"O=C(O)CCCCc1nc2cc(C(=O)N3CCC(c4ccccc4)CC3)ccc2nc1-c1ccc(F)cc1 [compound 105, 3-(4-fluorophenyl)-7-[(4-phenyl-1-piperidinyl)carbonyl]-2-quinoxalinepentanoic acid]",2.1 to 20
3,"O=C(O)CCCCc1nc2cc(C(=O)N[C@@H](c3ccccc3)C(F)(F)F)ccc2nc1-c1ccc(F)cc1 [compound 102, 3-(4-fluorophenyl)-7-[[(2,2,2-trifluoro-1(S)-phenylethyl)amino]carbonyl]-2-quinoxalinepentanoic acid]",2.1 to 20
4,"C[C@@]1(c2ccccc2)CCCN(C(=O)c2ccc3nc(-c4ccccc4)c(CCCCC(=O)O)nc3c2)C1 [compound 171, 7-[(3(S)-methyl-3-phenyl-1-piperidinyl)carbonyl]-3-phenyl-2-quinoxalinepentanoic acid]",2.1 to 20
5,"O=C(O)CCCC(O)c1nc2cc(C(=O)N[C@@H]3CCCc4ccccc43)ccc2nc1-c1ccc(Cl)cc1 (stereo partly drawn) [compound 33, 5-(3-(4-chlorophenyl)-7-(((R)-1,2,3,4-tetrahydronaphthalen-1-yl)carbamoyl)quinoxalin-2-yl)-5-hydroxypentanoic acid]",20.1 to 200
6,"C[C@H](NC(=O)c1ccc2nc(-c3ccc(C(F)(F)F)cc3)c(CCCCC(=O)O)nc2c1)c1cccc(-c2ccccc2)c1 [compound 4, (S)-5-{7-[1-(biphenyl-3-yl)ethylcarbamoyl]-3-[4-(trifluoromethyl)phenyl]quinoxalin-2-yl}pentanoic Acid]",2.1 to 20

# The remaining lines, values ahead:
row,Ki [nM],Compound
1,2.1 to 20,"O=C(O)CCCCc1nc2cc(C(=O)N3CC[C@@H](c4ccccc4)C3)c(F)cc2nc1-c1ccc(F)cc1 [24H, 6-fluoro-3-(4-fluorophenyl)-7-[(3(S)-phenyl-1-pyrrolidinyl)carbonyl]-2-quinoxalinepentanoic acid]"
2,2.1 to 20,"O=C(O)CCCCc1nc2cc(C(=O)N3CCC(c4ccccc4)C3)ccc2nc1-c1cccc(Cl)c1 (stereo not drawn) [26F, 3-(3-chlorophenyl)-7-[(3-phenyl-1-pyrrolidinyl)carbonyl]-2-quinoxalinepentanoic acid]"
3,201 to 700,O=C(O)CCCCc1nc2cc(NC(=O)c3ccc(OC(F)(F)F)cc3)ccc2nc1-c1ccccc1 [11D]
4,20.1 to 200,"O=C(O)CCCCc1nc2cc(C(=O)Nc3ccccc3)ccc2nc1-c1ccccc1 [15AA, 5-[3-phenyl-7-(phenylcarbamoyl)quinoxalin-2-yl] pentanoic acid]"
5,2.1 to 20,"CCc1ccc(CNC(=O)c2ccc3nc(-c4ccccc4)c(CCCCC(=O)O)nc3c2)cc1 [15AZ, 5-{7-[(4-ethylbenzyl)carbamoyl]-3-phenylquinoxalin-2-yl}pentanoic acid]"
6,2.1 to 20,"O=C(O)CCCCc1nc2cc(C(=O)N3CCC(c4ccccc4)C3)ccc2nc1-c1cc(Cl)cc(Cl)c1 (stereo not drawn) [26G, 3-(3,5-dichlorophenyl)-7-[(3-phenyl-1-pyrrolidinyl)carbonyl]-2-quinoxalinepentanoic acid]"
7,2.1 to 20,"O=C(O)CCCCc1nc2cc(C(=O)N3CCc4ccccc4C3)ccc2nc1-c1ccccc1 [15AP, 5-[7-(3,4-dihydroisoquinolin-2(1H)-ylcarbonyl)-3-phenylquinoxalin-2-yl]pentanoic acid]"
8,0.1 to 2,"C[C@H](NC(=O)c1ccc2nc(-c3ccccc3)c(CCCCC(=O)O)nc2c1)c1ccc(F)cc1 [15E, 5-(7-{[(1S)-1-(4-fluorophenyl)ethyl]carbamoyl}-3-phenylquinoxalin-2-yl)pentanoic acid]"
9,2.1 to 20,"CC(NC(=O)c1ccc2nc(-c3ccc(C(F)(F)F)cc3)c(CCCCC(=O)O)nc2c1)c1ccc(-c2ccccc2)cc1 (single isomer, unassigned) [4G, 7-[[(1-[1,1′-biphenyl]-4-ylethyl)amino]carbonyl]-3-[4-(trifluoromethyl)-phenyl]-2-quinoxaline-pentanoic acid]"

# Same assay, conditions: [3H]PGD2 binding, values in text
row,Ki [nM],Compound
1,4.2,"C[C@@H](CCc1nc2cc(C(=O)N[C@H](C)c3ccc(F)cc3)ccc2nc1-c1ccc(F)cc1)CC(=O)O [compound 438, (S)-5-(3-(4-fluorophenyl)-7-(((R)-1-(4-fluorophenyl)ethyl)carbamoyl)quinoxalin-2-yl)-3-methylpentanoic acid]"

# Same assay, conditions: [3H]PGD2 competition, Table B
row,Ki [nM],Compound
1,2.1 to 20,"C[C@@H](CCc1nc2cc(C(=O)N[C@H](C)c3ccc(F)cc3)ccc2nc1-c1ccc(F)cc1)CC(=O)O [compound 438, (S)-5-(3-(4-fluorophenyl)-7-(((R)-1-(4-fluorophenyl)ethyl)carbamoyl)quinoxalin-2-yl)-3-methylpentanoic acid]"
2,2.1 to 20,"C[C@@H](NC(=O)c1ccc2nc(-c3ccccc3)c(CC3CC(C(=O)O)C3)nc2c1)c1ccc(F)cc1 (stereo partly drawn) [compound 422, (R)-3-((7-((1-(4-fluorophenyl)ethyl)carbamoyl)-3-phenylquinoxalin-2-yl)methyl)cyclobutanecarboxyl acid]"
3,2.1 to 20,"O=C(N[C@@H]1CCCc2ccccc21)c1ccc2nc(-c3ccc(F)cc3)c(CC[C@@H]3C[C@H]3C(=O)O)nc2c1 [compound 500, (1R,2R)-2-(2-(3-(4-fluorophenyl)-7-(((R)-1,2,3,4-tetrahydronaphthalen-1-yl)carbamoyl)quinoxalin-2-yl)ethyl)cyclopropane-carboxylic acid]"
4,20.1 to 200,"C[C@H](CCc1nc2cc(C(=O)N[C@@H](C)c3ccc(F)cc3)ccc2nc1-c1ccccc1)CC(=O)O [compound 279, (R)-5-(7-(((S)-1-(4-fluorophenyl)ethyl)carbamoyl)-3-phenylquinoxalin-2-yl)-3-methylpentanoic acid]"
5,2.1 to 20,"O=C(O)CCCCc1nc2cc(C(=O)N3CCC4(CC3)CNC(=O)c3ccccc34)ccc2nc1-c1ccc(F)cc1 [compound 353, 5-(3-(4-fluorophenyl)-7-(1-oxo-2,3-dihydro-1H-spiro[isoquinoline-4,4′-piperidin]-1′-ylcarbonyl)quinoxalin-2-yl)pentanoic acid]"
6,2.1 to 20,"O=C(N[C@@H]1CCCc2ccccc21)c1ccc2nc(-c3ccccc3)c(CCCC(F)(F)C(=O)O)nc2c1 [compound 466, (R)-2,2-difluoro-5-(3-phenyl-7-((1,2,3,4-tetahydronaphthalen-1-yl)carbamoyl)quinoxalin-2-yl)pentanoic acid]"
7,20.1 to 200,"Cc1nc(N2CCN(C(=O)c3ccc4nc(-c5ccc(Cl)cc5)c(CCCCC(=O)O)nc4c3)CC2)cn1C [compound 700, 5-(3-(4-chlorophenyl)-7-(4-(1,2-dimethyl-1H-imidazol-4-yl)piperazine-1-carbonyl)quinoxalin-2-yl)pentanoic acid]"
8,2.1 to 20,"O=C(O)CCCCc1nc2cc(C(=O)N3CCC4(CCOC4)CC3)ccc2nc1-c1ccc(Cl)cc1 [compound 340, 5-(3-(4-chlorophenyl)-7-(2-oxa-8-azaspiro[4.5]decane-8-carbonyl)quinoxalin-2-yl)pentanoic acid]"
9,0.1 to 2,"N#Cc1ccc(C2CN(C(=O)c3ccc4nc(-c5ccc(Cl)cc5)c(CCCCC(=O)O)nc4c3)C2)cc1 [compound 421, 5-(3-(4-chlorophenyl)-7-(3-(4-cyanophenyl)azetidine-l-carbonyl)quinoxalin-2-yl)pentanoic acid]"
10,201 to 700,"O=C(O)CCCCc1nc2cc(C(=O)N[C@@H]3CCCc4cccnc43)ccc2nc1-c1ccccc1 [compound 370, (R)-8-(3-(4-carboxybutyl)-2-phenylquinoxaline-6-carboxamido)-5,6,7,8-tetrahydroquinolin-1-ium 2,2,2-trifluoroacetic acid]"
11,201 to 700,"O=C(N[C@H](c1ccc(F)cc1)C(F)(F)F)c1ccc2nc(-c3ccccc3)c(CCCC(F)(F)C(=O)O)nc2c1 [compound 469, (R)-2,2-difluoro-5-(3-phenyl-7-((2,2,2-trifluoro-1-(4-fluorophenyl)ethyl)carbamoyl)quinoxalin-2-yl)pentanoic acid]"
12,2.1 to 20,"O=C(O)Cc1cccc(CCCc2nc3cc(C(=O)N4CC[C@@H](c5ccccc5)C4)ccc3nc2-c2ccc(F)cc2)c1 [compound 274, (S)-2-(3-(3-(3-(4-fluorophenyl)-7-(3-phenylpyrrolidine-1-carbonyl)quinoxalin-2-yl)propyl)phenyl)acetic acid]"
13,20.1 to 200,"C[C@@H](NC(=O)c1ccc2nc(-c3ccccc3)c(CCCC(F)(F)C(=O)O)nc2c1)c1ccc(Cl)cc1 [compound 464, (R)-5-(7-((1-(4-chlorophenyl)ethyl)carbamoyl)-3-phenylquinoxalin-2-yl)-2,2-difluoropentanoic acid]"
14,2.1 to 20,"N#Cc1ccc2c(c1)OCC[C@H]2NC(=O)c1ccc2nc(-c3ccc(Cl)cc3)c(CCCCC(=O)O)nc2c1 [compound 332, (R)-5-(3-(4-chlorophenyl)-7-((7-cyanochroman-4-yl)carbamoyl)quinoxalin-2-yl)pentanoic acid]"
15,2.1 to 20,"C[C@@H](NC(=O)c1ccc2nc(-c3ccc(Cl)cc3)c(CCCCC(=O)O)nc2c1)c1cccc2ccccc12 [compound 493, (R)-5-(3-(4-chlorophenyl)-7-((1-(naphthalen-1-yl)ethyl)carbamoyl)quinoxalin-2-yl)pentanoic acid]"
16,2.1 to 20,"O=C(O)CCCCc1nc2cc(C(=O)N3CCN(c4cccc(C(F)(F)F)c4)CC3)ccc2nc1-c1ccccc1 [compound 309, 5-(3-phenyl-7-(4-(3-(trifluoromethyl)phenyl)piperazine-l-carbonyl)quinoxalin-2-yl)pentanoic acid]"
17,2.1 to 20,"O=C(c1ccc2nc(-c3ccc(F)cc3)c(CCCC(F)(F)C(=O)O)nc2c1)N1CCC(c2ccccc2)CC1 [compound 531, 2,2-difluoro-5-(3-(4-fluorophenyl)-7-(4-phenylpiperidine-1-carbonyl)quinoxalin-2-yl)pentanoic acid]"

# Reference: patent US9469615B2, “Quinoxalines and AZA-quinoxalines as CRTH2 receptor modulators” (Merck Sharp & Dohme Corp., priority 2010, dated 2016)
